Reference: PMC12518996 (Frontiers in Pharmacology, 2025)

Assays:
Assay type in all cases: in vitro ADME
[1] = molecular target: T1, CYP1A2 (Homo sapiens, UniProt P05177); assay: Metabolite formation by recombinant human CYP1A2; details: trazodone 4 μM; NADPH; 37 °C, 40 min
T1 sequence (P05177 1-516): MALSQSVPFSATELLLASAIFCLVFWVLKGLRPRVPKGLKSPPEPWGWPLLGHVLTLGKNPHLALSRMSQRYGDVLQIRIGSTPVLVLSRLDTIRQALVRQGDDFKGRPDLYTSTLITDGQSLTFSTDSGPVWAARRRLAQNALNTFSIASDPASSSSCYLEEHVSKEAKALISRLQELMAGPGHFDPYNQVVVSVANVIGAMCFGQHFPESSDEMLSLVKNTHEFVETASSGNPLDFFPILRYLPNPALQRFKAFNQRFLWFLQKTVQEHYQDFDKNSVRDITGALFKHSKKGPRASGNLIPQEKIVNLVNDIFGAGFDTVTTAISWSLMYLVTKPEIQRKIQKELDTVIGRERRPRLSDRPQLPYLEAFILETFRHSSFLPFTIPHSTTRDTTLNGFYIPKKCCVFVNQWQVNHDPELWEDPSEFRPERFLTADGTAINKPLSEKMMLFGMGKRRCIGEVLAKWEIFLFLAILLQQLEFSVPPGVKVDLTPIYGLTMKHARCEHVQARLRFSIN
Procedure: (§1) To confirm the role of individual CYP isoforms in metabolizing trazodone, recombinant human and rat CYP enzymes were employed in separate incubations. […] Each reaction was terminated with acetonitrile, centrifuged, and the supernatant was analyzed by identical UHPLC-Orbitrap setup outlined in §2.2, allowing direct comparison of metabolite spectra across all in-vitro systems. […] This procedure helped confirm the contributions of individual isoforms to specific biotransformation reactions.

[2] = molecular target: T2, CYP2D4 (Rattus norvegicus, UniProt Q64680); assay: Metabolite formation by recombinant rat CYP2D4; details: trazodone 4 μM; NADPH; 37 °C, 40 min
T2 sequence (Q64680 1-500): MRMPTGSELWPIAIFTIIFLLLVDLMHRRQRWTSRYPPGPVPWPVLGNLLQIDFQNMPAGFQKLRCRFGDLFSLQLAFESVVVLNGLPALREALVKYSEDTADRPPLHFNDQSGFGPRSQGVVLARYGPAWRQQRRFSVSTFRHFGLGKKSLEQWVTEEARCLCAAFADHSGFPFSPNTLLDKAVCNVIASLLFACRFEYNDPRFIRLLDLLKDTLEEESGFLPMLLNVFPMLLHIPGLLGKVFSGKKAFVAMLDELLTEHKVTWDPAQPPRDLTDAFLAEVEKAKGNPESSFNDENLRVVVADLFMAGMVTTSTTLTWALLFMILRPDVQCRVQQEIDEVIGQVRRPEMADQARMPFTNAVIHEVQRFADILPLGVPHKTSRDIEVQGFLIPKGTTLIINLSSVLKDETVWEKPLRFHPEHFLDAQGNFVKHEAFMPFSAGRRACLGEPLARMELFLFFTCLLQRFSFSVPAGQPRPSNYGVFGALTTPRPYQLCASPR
Procedure: as §1

[3] = molecular target: T3, CYP3A2 (Rattus norvegicus, UniProt P05183); assay: Metabolite formation by recombinant rat CYP3A2; details: trazodone 4 μM; NADPH; 37 °C, 40 min
T3 sequence (P05183 1-504): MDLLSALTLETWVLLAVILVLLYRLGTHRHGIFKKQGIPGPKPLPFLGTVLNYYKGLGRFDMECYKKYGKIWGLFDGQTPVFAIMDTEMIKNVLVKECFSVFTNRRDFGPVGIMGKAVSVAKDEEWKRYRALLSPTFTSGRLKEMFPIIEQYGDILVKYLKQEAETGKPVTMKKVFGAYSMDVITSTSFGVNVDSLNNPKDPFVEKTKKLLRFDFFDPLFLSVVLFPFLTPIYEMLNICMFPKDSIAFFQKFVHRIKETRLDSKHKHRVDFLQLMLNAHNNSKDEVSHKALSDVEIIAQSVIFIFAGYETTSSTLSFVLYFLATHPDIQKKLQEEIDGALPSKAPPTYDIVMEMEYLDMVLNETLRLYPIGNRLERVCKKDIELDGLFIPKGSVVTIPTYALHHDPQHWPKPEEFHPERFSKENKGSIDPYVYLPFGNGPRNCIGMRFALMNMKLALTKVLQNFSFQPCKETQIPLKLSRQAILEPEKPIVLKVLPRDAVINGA
Procedure: Each reaction was terminated with acetonitrile, centrifuged, and the supernatant was analyzed by identical UHPLC-Orbitrap setup outlined in §2.2, allowing direct comparison of metabolite spectra across all in-vitro systems.

[4] = tested on: rat hepatocytes; assay: Metabolic profiling in rat hepatocytes; details: trazodone 8 μM, 120 min incubation
Procedure: (§2) For hepatocyte incubations, pooled cryopreserved human hepatocytes (20-donor mix, Celsis) and male Sprague-Dawley rat hepatocytes (12-donor mix, Bioreclamation IVT) were used. Each incubation contained 1 million viable cells/mL in Celsis InVitro HI medium, at a pH of 7.4, and was conducted at 37 °C for 120 min under gentle agitation to facilitate metabolic activity.
(§3) Processed supernatants (4 µL) were injected onto a Thermo U3000 UHPLC system coupled to a Thermo Q-Exactive Orbitrap MS equipped with a PDA detector. […] The Orbitrap operated in positive ESI mode (sheath/aux/sweep N2 55/8/4 units; capillary 3.0 kV, 370 °C; auxiliary heater 550 °C) with full-scan m/z 100–1,000 at 35,000 FWHM (m/z 200) and DDI-MS/MS at 17,500 FWHM (7 Hz acquisition; IT […]; HCD 40 eV). External mass calibration and a 5 ppm extraction window were applied, and data were processed in Xcalibur 3.0.63/Compound Discoverer 1.0.

[5] = tested on: human liver microsomes; assay: Metabolic profiling in human liver microsomes; details: trazodone 8 μM, 40 min incubation
Procedure: (§4) The metabolic profile of trazodone was determined using in vitro incubations with rat and human liver microsomes, hepatocytes, and rat plasma samples. […] Microsomal incubations were conducted with pooled human and rat liver microsomes (Celsis IVT) using 0.6 mg/mL microsomal protein in 0.1 M phosphate buffer (pH 7.4). NADPH (1 mM) was added as a cofactor to initiate phase I metabolic reactions. Reactions were performed at 37 °C for 40 min with gentle shaking.
as §3

[6] = tested on: rat liver microsomes; assay: Metabolic profiling in rat liver microsomes; details: trazodone 8 μM, 40 min incubation
Procedure: as §4, §3

[7] = tested on: human hepatocytes; assay: Metabolic profiling in human hepatocytes; details: trazodone 8 μM, 120 min incubation
Procedure: as §2, §3

Row | Compound | Formation of trazodone phase I metabolite by recombinant human CYP1A2 (as LC/MS peak areas) [1] | Formation of trazodone phase I metabolite by recombinant rat CYP2D4 (as LC/MS peak areas) [2] | Formation of trazodone phase I metabolite by recombinant rat CYP3A2 (as LC/MS peak areas) [3] | relative abundance (% of total LC-MS signal), Hepatocytes Rat (%) [4] | relative abundance (% of total LC-MS signal), Liver microsomes Human (%) [5] | relative abundance (% of total LC-MS signal), Liver microsomes Rat (%) [6] | relative abundance (% of total LC-MS signal), Hepatocytes Human (%) [7]
1 | Clc1cccc(N2CCNCC2)c1 [mCPP, m-chlorophenylpiperazine] | 266 | 3166 | 45534 | – | – | – | –
2 | O=c1n(CCCO)nc2ccccn12 [Metabolite M20] | – | 538 | 5761 | 0.9% | 2.9% | 1.4% | 0.9%
3 | O=c1n(CCCN2CCNCC2)nc2ccccn12 [Metabolite M15] | – | 184 | 3368 | 0.7% | 0.3% | 0.8% | 0.2%
